Source: PubChem BioAssay (NCI)
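Following 48 hours of exposure in 96-well plates, responses at five concentrations were used to interpolate endpoints linearly. TGI: concentration producing complete growth inhibition.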

Key:
Experiment in all cases: inhibition of tumour cell growth, NCI panel, 48 h
OVCAR-3 ovarian = system: OVCAR-3 ovarian
786-0 renal = system: 786-0 renal
SN12C renal = system: SN12C renal
UACC-257 melanoma = system: UACC-257 melanoma
HOP-92 NSCLC = system: HOP-92 NSCLC
HCT-15 colon = system: HCT-15 colon
NCI-H522 lung = system: NCI-H522 lung
NCI-H23 lung = system: NCI-H23 lung
ACHN renal = system: ACHN renal
MDA-MB-231 breast = system: MDA-MB-231 breast
MDA-N = system: MDA-N
LOX IMVI melanoma = system: LOX IMVI melanoma
HT29 colon = system: HT29 colon
A498 renal = system: A498 renal
SK-MEL-28 melanoma = system: SK-MEL-28 melanoma
SNB-75 CNS = system: SNB-75 CNS
OVCAR-4 ovarian = system: OVCAR-4 ovarian
HL-60(TB) leukemia = system: HL-60(TB) leukemia
MCF7 breast = system: MCF7 breast
UACC-62 melanoma = system: UACC-62 melanoma
SK-MEL-2 melanoma = system: SK-MEL-2 melanoma
SF-295 CNS = system: SF-295 CNS
U251 CNS = system: U251 CNS
SW-620 colon = system: SW-620 colon
SF-268 CNS = system: SF-268 CNS
SNB-19 CNS = system: SNB-19 CNS
HCT-116 colon = system: HCT-116 colon
SR leukemia = system: SR leukemia
DU-145 prostate = system: DU-145 prostate
M14 melanoma = system: M14 melanoma
UO-31 renal = system: UO-31 renal
BT-549 breast = system: BT-549 breast
HS 578T breast = system: HS 578T breast
EKVX NSCLC = system: EKVX NSCLC
T-47D breast = system: T-47D breast
A549 NSCLC = system: A549 NSCLC
COLO 205 colon = system: COLO 205 colon
HOP-62 NSCLC = system: HOP-62 NSCLC
K-562 leukemia = system: K-562 leukemia
TK-10 renal = system: TK-10 renal
RPMI-8226 leukemia = system: RPMI-8226 leukemia
PC-3 prostate = system: PC-3 prostate
MDA-MB-435 = system: MDA-MB-435
SK-MEL-5 melanoma = system: SK-MEL-5 melanoma
CCRF-CEM leukemia = system: CCRF-CEM leukemia
SF-539 CNS = system: SF-539 CNS
MALME-3M melanoma = system: MALME-3M melanoma
MOLT-4 leukemia = system: MOLT-4 leukemia
OVCAR-8 ovarian = system: OVCAR-8 ovarian
RXF 393 renal = system: RXF 393 renal
CAKI-1 renal = system: CAKI-1 renal
KM12 colon = system: KM12 colon
HCC-2998 colon = system: HCC-2998 colon
NCI/ADR-RES ovarian = system: NCI/ADR-RES ovarian
NCI-H460 lung = system: NCI-H460 lung
IGROV1 ovarian = system: IGROV1 ovarian
OVCAR-5 ovarian = system: OVCAR-5 ovarian
SK-OV-3 ovarian = system: SK-OV-3 ovarian
NCI-H226 lung = system: NCI-H226 lung

## CC1=NN(C(=O)CC(=O)Nc2ccccc2)C(=O)C1N=Nc1ccc(C(=O)O)cc1 (centres undefined)
OVCAR-3 ovarian
  TGI: > 100 µM
786-0 renal
  TGI: > 100 µM
SN12C renal
  TGI: > 100 µM
UACC-257 melanoma
  TGI: > 100 µM
HOP-92 NSCLC
  TGI: 87.1 µM
HCT-15 colon
  TGI: > 100 µM
NCI-H522 lung
  TGI: > 100 µM
NCI-H23 lung
  TGI: > 100 µM
ACHN renal
  TGI: > 100 µM
MDA-MB-231 breast
  TGI: > 100 µM
MDA-N
  TGI: > 100 µM
LOX IMVI melanoma
  TGI: > 100 µM
HT29 colon
  TGI: > 100 µM
A498 renal
  TGI: > 100 µM
SK-MEL-28 melanoma
  TGI: > 100 µM
SNB-75 CNS
  TGI: > 100 µM
OVCAR-4 ovarian
  TGI: > 100 µM
HL-60(TB) leukemia
  TGI: > 100 µM
MCF7 breast
  TGI: > 100 µM
UACC-62 melanoma
  TGI: > 100 µM
SK-MEL-2 melanoma
  TGI: > 100 µM
SF-295 CNS
  TGI: > 100 µM
U251 CNS
  TGI: > 100 µM
SW-620 colon
  TGI: > 100 µM
SF-268 CNS
  TGI: > 100 µM
SNB-19 CNS
  TGI: > 100 µM
HCT-116 colon
  TGI: > 100 µM
SR leukemia
  TGI: > 100 µM
DU-145 prostate
  TGI: > 100 µM
M14 melanoma
  TGI: > 100 µM
UO-31 renal
  TGI: > 100 µM
BT-549 breast
  TGI: > 100 µM
HS 578T breast
  TGI: > 100 µM
EKVX NSCLC
  TGI: > 100 µM
T-47D breast
  TGI: > 100 µM
A549 NSCLC
  TGI: > 100 µM
COLO 205 colon
  TGI: > 100 µM
HOP-62 NSCLC
  TGI: > 100 µM
K-562 leukemia
  TGI: > 100 µM
TK-10 renal
  TGI: > 100 µM
RPMI-8226 leukemia
  TGI: > 100 µM
PC-3 prostate
  TGI: > 100 µM
MDA-MB-435
  TGI: > 100 µM
SK-MEL-5 melanoma
  TGI: > 100 µM
CCRF-CEM leukemia
  TGI: > 100 µM
SF-539 CNS
  TGI: > 100 µM
MALME-3M melanoma
  TGI: > 100 µM
MOLT-4 leukemia
  TGI: > 100 µM
OVCAR-8 ovarian
  TGI: > 100 µM
RXF 393 renal
  TGI: > 100 µM
CAKI-1 renal
  TGI: > 100 µM
KM12 colon
  TGI: > 100 µM
HCC-2998 colon
  TGI: > 100 µM
NCI/ADR-RES ovarian
  TGI: > 100 µM
NCI-H460 lung
  TGI: > 100 µM
IGROV1 ovarian
  TGI: > 100 µM
OVCAR-5 ovarian
  TGI: > 100 µM

## Nc1ccc(I)cn1
OVCAR-3 ovarian
  TGI: > 100 µM
786-0 renal
  TGI: > 100 µM
SN12C renal
  TGI: > 100 µM
HCT-15 colon
  TGI: > 100 µM
NCI-H522 lung
  TGI: > 100 µM
NCI-H23 lung
  TGI: > 100 µM
ACHN renal
  TGI: > 100 µM
MDA-MB-231 breast
  TGI: > 100 µM
MDA-N
  TGI: > 100 µM
LOX IMVI melanoma
  TGI: > 100 µM
HT29 colon
  TGI: > 100 µM
A498 renal
  TGI: > 100 µM
SK-MEL-28 melanoma
  TGI: > 100 µM
SNB-75 CNS
  TGI: > 100 µM
OVCAR-4 ovarian
  TGI: > 100 µM
HL-60(TB) leukemia
  TGI: > 100 µM
MCF7 breast
  TGI: > 100 µM
UACC-62 melanoma
  TGI: > 100 µM
SK-MEL-2 melanoma
  TGI: > 100 µM
SF-295 CNS
  TGI: > 100 µM
U251 CNS
  TGI: > 100 µM
SW-620 colon
  TGI: > 100 µM
SF-268 CNS
  TGI: > 100 µM
SNB-19 CNS
  TGI: > 100 µM
HCT-116 colon
  TGI: > 100 µM
SR leukemia
  TGI: > 100 µM
DU-145 prostate
  TGI: > 100 µM
M14 melanoma
  TGI: > 100 µM
UO-31 renal
  TGI: > 100 µM
BT-549 breast
  TGI: > 100 µM
HS 578T breast
  TGI: > 100 µM
SK-OV-3 ovarian
  TGI: > 100 µM
EKVX NSCLC
  TGI: > 100 µM
T-47D breast
  TGI: > 100 µM
A549 NSCLC
  TGI: > 100 µM
COLO 205 colon
  TGI: > 100 µM
HOP-62 NSCLC
  TGI: > 100 µM
K-562 leukemia
  TGI: > 100 µM
RPMI-8226 leukemia
  TGI: > 100 µM
PC-3 prostate
  TGI: > 100 µM
MDA-MB-435
  TGI: > 100 µM
SK-MEL-5 melanoma
  TGI: > 100 µM
CCRF-CEM leukemia
  TGI: > 100 µM
MALME-3M melanoma
  TGI: > 100 µM
MOLT-4 leukemia
  TGI: > 100 µM
OVCAR-8 ovarian
  TGI: > 100 µM
RXF 393 renal
  TGI: > 100 µM
CAKI-1 renal
  TGI: > 100 µM
KM12 colon
  TGI: > 100 µM
HCC-2998 colon
  TGI: > 100 µM
NCI-H226 lung
  TGI: > 100 µM
NCI/ADR-RES ovarian
  TGI: > 100 µM
NCI-H460 lung
  TGI: > 100 µM
IGROV1 ovarian
  TGI: > 100 µM
OVCAR-5 ovarian
  TGI: > 100 µM

## CCOC(=O)c1ccc(NC(=O)O/N=C(/Cl)CC)cc1
OVCAR-3 ovarian
  TGI: 3.5 µM
786-0 renal
  TGI: 13 µM
SN12C renal
  TGI: 39.3 µM
UACC-257 melanoma
  TGI: 29.8 µM
HOP-92 NSCLC
  TGI: 6.77 µM
HCT-15 colon
  TGI: 28.9 µM
NCI-H522 lung
  TGI: 6.81 µM
NCI-H23 lung
  TGI: 39.9 µM
ACHN renal
  TGI: 22.9 µM
MDA-MB-231 breast
  TGI: 42.5 µM
MDA-N
  TGI: 32.6 µM
HT29 colon
  TGI: 44.5 µM
A498 renal
  TGI: 32.4 µM
SK-MEL-28 melanoma
  TGI: 30.6 µM
SNB-75 CNS
  TGI: 28.2 µM
OVCAR-4 ovarian
  TGI: 10.1 µM
HL-60(TB) leukemia
  TGI: 6.47 µM
MCF7 breast
  TGI: 30.9 µM
UACC-62 melanoma
  TGI: 45.4 µM
SK-MEL-2 melanoma
  TGI: 31.9 µM
SF-295 CNS
  TGI: 36.4 µM
U251 CNS
  TGI: 34.3 µM
SW-620 colon
  TGI: 3.36 µM
SF-268 CNS
  TGI: 48 µM
SNB-19 CNS
  TGI: 45.5 µM
HCT-116 colon
  TGI: 26.1 µM
SR leukemia
  TGI: 11.6 µM
DU-145 prostate
  TGI: 33.5 µM
M14 melanoma
  TGI: 25.6 µM
UO-31 renal
  TGI: 31.4 µM
BT-549 breast
  TGI: 59.5 µM
HS 578T breast
  TGI: 67.5 µM
SK-OV-3 ovarian
  TGI: 31.7 µM
EKVX NSCLC
  TGI: 32.2 µM
T-47D breast
  TGI: 19.8 µM
A549 NSCLC
  TGI: > 60.8 µM
COLO 205 colon
  TGI: 5.5 µM
HOP-62 NSCLC
  TGI: 38.1 µM
K-562 leukemia
  TGI: 3.6 µM
TK-10 renal
  TGI: > 34.4 µM
PC-3 prostate
  TGI: 33.3 µM
MDA-MB-435
  TGI: 34.6 µM
SK-MEL-5 melanoma
  TGI: 29.5 µM
CCRF-CEM leukemia
  TGI: 4.54 µM
SF-539 CNS
  TGI: 33.6 µM
MALME-3M melanoma
  TGI: 9.14 µM
MOLT-4 leukemia
  TGI: 4.51 µM
OVCAR-8 ovarian
  TGI: 30.4 µM
RXF 393 renal
  TGI: 31.1 µM
CAKI-1 renal
  TGI: 8.72 µM
KM12 colon
  TGI: 36.1 µM
HCC-2998 colon
  TGI: 32.6 µM
NCI-H226 lung
  TGI: 40 µM
NCI/ADR-RES ovarian
  TGI: 22 µM
NCI-H460 lung
  TGI: 40.9 µM
IGROV1 ovarian
  TGI: 41.3 µM
OVCAR-5 ovarian
  TGI: 34.3 µM
